Data reported in the NIST ThermoML archive (doi:10.1016/j.jct.2011.02.008).

Test: xn = mol fraction of the nth substance listed
Conditions: Liquid, Vibrating tube method

COC(=O)c1ccccc1 [methyl benzoate] + CCCCCCO
mass density [kg/m3]
Conditions | x1 = 0.1004 | x1 = 0.2007 | x1 = 0.3007 | x1 = 0.4013 | x1 = 0.5005 | x1 = 0.6009 | x1 = 0.7 | x1 = 0.8008 | x1 = 0.9009
318.15 K, 30000 kPa | 846.9 | 872.9 | 899.1 | 925.4 | 951.5 | 977.9 | 1003.9 | 1030.5 | 1056.8
318.15 K, 35000 kPa | 849.9 | 875.9 | 902.1 | 928.4 | 954.5 | 980.9 | 1006.9 | 1033.5 | 1059.8
318.15 K, 40000 kPa | 852.8 | 878.8 | 905.1 | 931.4 | 957.4 | 983.8 | 1009.8 | 1036.4 | 1062.7
318.15 K, 45000 kPa | 855.7 | 881.7 | 907.9 | 934.3 | 960.3 | 986.7 | 1012.7 | 1039.3 | 1065.6
318.15 K, 50000 kPa | 858.4 | 884.5 | 910.7 | 937.1 | 963.1 | 989.5 | 1015.5 | 1042.1 | 1068.4
318.15 K, 55000 kPa | 861.1 | 887.2 | 913.4 | 939.8 | 965.8 | 992.2 | 1018.2 | 1044.6 | 1071.1
318.15 K, 60000 kPa | 863.6 | 889.6 | 915.9 | 942.3 | 968.3 | 994.9 | 1020.7 | 1047.2 | 1073.6
328.15 K, 100 kPa | 818.7 | 844.4 | 870.4 | 896.7 | 922.5 | 948.8 | 974.9 | 1001.4 | 1027.8
328.15 K, 1000 kPa | 819.4 | 845.1 | 871.1 | 897.4 | 923.2 | 949.5 | 975.6 | 1002.1 | 1028.5
328.15 K, 5000 kPa | 822.6 | 848.3 | 874.3 | 900.5 | 926 | 952.6 | 978.6 | 1005.1 | 1031.5
328.15 K, 10000 kPa | 826.4 | 852.1 | 878.1 | 904.3 | 930.1 | 956.3 | 982.2 | 1008.7 | 1035.1
328.15 K, 15000 kPa | 830 | 855.7 | 881.7 | 907.8 | 933.7 | 959.9 | 985.8 | 1012.3 | 1038.6
328.15 K, 20000 kPa | 833.5 | 859.2 | 885.2 | 911.3 | 937.2 | 963.3 | 989.2 | 1015.7 | 1042
328.15 K, 25000 kPa | 836.9 | 862.6 | 888.6 | 914.6 | 940.5 | 966.6 | 992.5 | 1019 | 1045.3
328.15 K, 30000 kPa | 840.1 | 865.8 | 891.8 | 917.9 | 943.7 | 969.9 | 995.7 | 1022.2 | 1048.5
328.15 K, 35000 kPa | 843.3 | 869 | 895 | 921.1 | 946.9 | 973 | 998.9 | 1025.3 | 1051.6
328.15 K, 40000 kPa | 846.3 | 872 | 898 | 924.1 | 950 | 976 | 1001.9 | 1028.3 | 1054.6
328.15 K, 45000 kPa | 849.2 | 874.9 | 901 | 927.1 | 952.9 | 979 | 1004.9 | 1031.3 | 1057.6
328.15 K, 50000 kPa | 852.1 | 877.8 | 903.9 | 930 | 955.8 | 981.9 | 1007.8 | 1034.2 | 1060.5
328.15 K, 55000 kPa | 854.9 | 880.6 | 906.7 | 932.8 | 958.7 | 984.8 | 1010.7 | 1037.1 | 1063.3
328.15 K, 60000 kPa | 857.4 | 883.2 | 908.8 | 935.6 | 960.6 | 987.4 | 1013.3 | 1039.6 | 1066.1
338.15 K, 100 kPa | 810.7 | 836.2 | 862 | 888 | 913.7 | 939.7 | 965.6 | 992 | 1018.4
338.15 K, 1000 kPa | 811.4 | 837 | 862.7 | 888.7 | 914.4 | 940.4 | 966.3 | 992.7 | 1019.1
338.15 K, 5000 kPa | 814.9 | 840.4 | 866.1 | 892 | 917.7 | 943.7 | 969.5 | 996 | 1022.3
338.15 K, 10000 kPa | 818.9 | 844.3 | 870.1 | 896 | 921.6 | 947.6 | 973.4 | 999.7 | 1026
338.15 K, 15000 kPa | 822.7 | 848.2 | 873.8 | 899.7 | 925.4 | 951.4 | 977.2 | 1003.4 | 1029.7
338.15 K, 20000 kPa | 826.4 | 851.8 | 877.5 | 903.4 | 929.1 | 955 | 980.7 | 1007 | 1033.3
338.15 K, 25000 kPa | 829.9 | 855.3 | 881 | 906.9 | 932.5 | 958.5 | 984.2 | 1010.5 | 1036.7
338.15 K, 30000 kPa | 833.3 | 858.7 | 884.4 | 910.3 | 935.9 | 961.8 | 987.5 | 1013.8 | 1040
338.15 K, 35000 kPa | 836.5 | 862 | 887.7 | 913.6 | 939.2 | 965.1 | 990.8 | 1017.1 | 1043.3
338.15 K, 40000 kPa | 839.7 | 865.1 | 890.9 | 916.8 | 942.4 | 968.3 | 994 | 1020.2 | 1046.4
338.15 K, 45000 kPa | 842.7 | 868.2 | 894 | 919.9 | 945.5 | 971.4 | 997.1 | 1023.3 | 1049.5
338.15 K, 50000 kPa | 845.7 | 871.2 | 897 | 922.9 | 948.5 | 974.4 | 1000.1 | 1026.4 | 1052.5
338.15 K, 55000 kPa | 848.6 | 874.1 | 899.9 | 925.8 | 951.4 | 977.4 | 1003.1 | 1029.3 | 1055.5
338.15 K, 60000 kPa | 851.4 | 876.8 | 902.8 | 928.7 | 954.3 | 980.1 | 1005.8 | 1032 | 1058.2
348.15 K, 100 kPa | 802.6 | 827.8 | 853.4 | 879.1 | 904.6 | 930.4 | 956.1 | 982.5 | 1008.8
348.15 K, 1000 kPa | 803.3 | 828.6 | 854.2 | 879.9 | 905.4 | 931.3 | 956.9 | 983.2 | 1009.5
348.15 K, 5000 kPa | 807 | 832.2 | 857.7 | 883.4 | 908.8 | 934.7 | 960.3 | 986.6 | 1012.9
348.15 K, 10000 kPa | 811.2 | 836.4 | 861.9 | 887.6 | 913 | 938.8 | 964.4 | 990.7 | 1016.9
348.15 K, 15000 kPa | 815.2 | 840.4 | 865.9 | 891.4 | 917 | 942.8 | 968.4 | 994.6 | 1020.7
348.15 K, 20000 kPa | 819 | 844.2 | 869.7 | 895.4 | 920.8 | 946.6 | 972.1 | 998.3 | 1024.4
348.15 K, 25000 kPa | 822.7 | 847.9 | 873.4 | 899.1 | 924.5 | 950.2 | 975.8 | 1001.9 | 1028
348.15 K, 30000 kPa | 826.2 | 851.4 | 877 | 902.6 | 928 | 953.8 | 979.3 | 1005.4 | 1031.5
348.15 K, 35000 kPa | 829.6 | 854.8 | 880.4 | 906 | 931.4 | 957.2 | 982.7 | 1008.9 | 1034.9
348.15 K, 40000 kPa | 832.9 | 858.1 | 883.7 | 909.3 | 934.7 | 960.5 | 986 | 1012.2 | 1038.2
348.15 K, 45000 kPa | 836.1 | 861.3 | 886.9 | 912.5 | 938 | 963.7 | 989.3 | 1015.4 | 1041.4
348.15 K, 50000 kPa | 839.1 | 864.4 | 890 | 915.7 | 941.1 | 966.9 | 992.4 | 1018.5 | 1044.5
348.15 K, 55000 kPa | 842.1 | 867.4 | 893 | 918.7 | 944.2 | 969.9 | 995.5 | 1021.6 | 1047.6
348.15 K, 60000 kPa | 844.9 | 870.2 | 895.8 | 921.5 | 947 | 972.8 | 998.2 | 1024.6 | 1050.4
358.15 K, 100 kPa | 794.1 | 819.1 | 844.4 | 869.9 | 895.3 | 921 | 946.6 | 972.8 | 999
358.15 K, 1000 kPa | 795 | 820 | 845.3 | 870.8 | 896.1 | 921.7 | 947.4 | 973.6 | 999.8
358.15 K, 5000 kPa | 798.7 | 823.7 | 849 | 874.5 | 899.8 | 925.5 | 951 | 977.2 | 1003.3
358.15 K, 10000 kPa | 803.1 | 828.2 | 853.5 | 878.9 | 904.2 | 929.9 | 955.3 | 981.4 | 1007.5
358.15 K, 15000 kPa | 807.4 | 832.4 | 857.7 | 883.1 | 908.4 | 934 | 959.5 | 985.5 | 1011.6
358.15 K, 20000 kPa | 811.4 | 836.4 | 861.7 | 887.1 | 912.3 | 938 | 963.4 | 989.5 | 1015.5
358.15 K, 25000 kPa | 815.3 | 840.3 | 865.6 | 891 | 916.2 | 941.8 | 967.3 | 993.3 | 1019.3
358.15 K, 30000 kPa | 818.9 | 844 | 869.3 | 894.7 | 919.9 | 945.5 | 970.9 | 996.9 | 1022.9
358.15 K, 35000 kPa | 822.4 | 847.6 | 872.8 | 898.3 | 923.5 | 949.1 | 974.5 | 1000.5 | 1026.5
358.15 K, 40000 kPa | 825.9 | 851 | 876.3 | 901.7 | 926.9 | 952.6 | 978 | 1003.9 | 1029.9
358.15 K, 45000 kPa | 829.2 | 854.3 | 879.6 | 905.1 | 930.3 | 956 | 981.3 | 1007.3 | 1033.2
358.15 K, 50000 kPa | 832.4 | 857.5 | 882.9 | 908.3 | 933.6 | 959.3 | 984.6 | 1010.6 | 1036.5
358.15 K, 55000 kPa | 835.5 | 860.7 | 886 | 911.5 | 936.7 | 962.4 | 987.8 | 1013.7 | 1039.7
358.15 K, 60000 kPa | 838.5 | 863.5 | 889.1 | 914.4 | 939.8 | 965.3 | 990.7 | 1016.9 | 1042.6
